Laboratory results taken from patent EP0091528A1, “-N-(1-propyl-2-pyrrolidylmethyl)-2-methoxy-5-sulfamoyl benzamide and its use against some sorts of depression” (priority 1982, dated 1983).
Values joined by “and” are separate entries in the source; they are usually repeats but may differ in a detail not shown here. Identical values can stand only once. Like-named read-outs stand apart in the source and are kept apart here.

How the values were obtained:
[1] = Double-blind comparative clinical trial versus imipramine in depression; assay type: in vivo, humaine; details: for tolérance tant clinique que biologique: 450 mg par jour (compound), 150 mg par jour (IMIPRAMINE)
Description: En conséquence, un essai clinique comparatif en double aveugle a été mené mettant en oeuvre le composé selon l'invention et l'IMIPRAMINE, produit de référence indiscutable dans le traitement de certains états dépressifs.
Les posologies retenues ont été fixées : • . pour l'IMIPRAMINE en fonction des données acquises et de la posologie préconisée par le fabricant, c'est-à-dire : 150 mg par jour, dose atteinte progressivement en 5 jours; • . pour le composé selon l'invention, à partir des données recueillies par les études antérieures, c'est-à-dire : 450 mg par jour. Bien que cette posologie puisse, du fait de l'excellente tolérance du produit, être administrée d'emblée, pour se plier aux règles du double-aveugle et respecter le mode d'administration optimum pour l'IMIPRAMINE, cette dose n'a également été atteinte que le Sème jour après deux paliers successifs de : 150 et 300 mg par jour. Toutefois d'autres études permettent de penser que des doses plus faibles du composé selon l'invention aboutissent à des résultats similaires.
Ces doses ont été administrées pendant 28 jours consécutifs en mono- thérapie, dans toute la mesure du possible.
Pouvaient entrer dans l'étude, les sujets présentant une dépression authentique c'est-à-dire atteignant le score de 36 à la version simplifiée à 17 items de l'échelle de Hamilton.
La comparaison entre les deux produits a porté sur l'efficacité thérapeutique et sur la tolérance, 34 cas ayant été analysés. Pour établir cette comparaison, le protocole prévoyait trois bilans : • . avant le début du traitement (JO) • . au 10ème jour (J10) • . au 28ème jour (J28)
Chacun de ces bilans comportait obligatoirement : • . une B.P.R.S. • une échelle de Hamilton (26 items) • une appréciation par l'expert de 1"'intensité du syndrome dépressif" • une recherche des troubles somatiques associés à l'état dépressif.
De plus, à JO et à J28, il a été pratiqué une auto-appréciation de son état par le malade (S.D.S.) et un bilan biologique standard.
Enfin, en fin de traitement, il a été convenu d'exprimer une impression subjective globale sur l'intérêt du traitement pour chaque observation.

[2] = test system: récepteurs dopamine centraux; test: Inhibition of apomorphine-induced rearing (climbing) movement in mice; assay type: in vivo; details: souris, I.P., apomorphine 1 mg/kg S.C.
Description: 2) - Les deux composés ne se distinguent pas non plus quand leur propriété antagoniste dopaminergique centrale est jugée par exemple d'après l'inhibition qu'ils provoquent du mouvement de redressement induit chez la souris par l'apomorphine (1 mg/kg S.C.).
Les doses inhibitrices 50 de ce mouvement sont voisines pour les deux composés, respectivement : […]

[3] = test system: récepteurs dopamine du centre du vomissement; test: Antiemetic power in the dog (apomorphine-induced emesis); assay type: in vivo; details: vomiting induced by apomorphine
Source text: D'une façon générale, ces dérivés benzamides interfèrent dans les mécanismes dopaminergiques du système nerveux. Leurs effets bloquants sur les récepteurs dopamine centraux leur confèrent des propriétés neuroleptiques. Leur effet bloquant sur les récepteurs dopamine du centre du vomissement se traduit par un puissant antagonisme à l'égard de l'effet émétisant de certains agonistes dopaminergiques, tels que l'apomorphine et les alcaloïdes de l'ergot de seigle.
Au plan pharmacologique, les interférences des deux composés dans le système dopamine ont été comparées par différents tests adaptés à la mise en évidence des effets antagonistes et agonistes. Il en résulte que : • 1) - le composé selon l'invention et le Sulpiride sont de très puissants antagonistes dans le test de l'emesis chez le chien où les vomissements sont provoqués par l'agoniste apomorphine.
Les valeurs des DE 50 montrent que les activités des deux composés sont équivalentes.

[4] = test system: stéréotypies induites chez le Rat par la d-amphétamine (agoniste indirect); test: Potentiation of d-amphetamine-induced stereotypies in the rat; assay type: in vivo; details: for DE50 vis-à-vis de la d-amphétamine: Bliss method, two trials not named
Description: (§1) A cet effet, le composé de l'invention a été étudié vis-à-vis de la potentialisation des stéréotypies induites chez le Rat par deux agonistes dopaminergiques, l'apomorphine (agoniste direct) et la d-amphétamine (agoniste indirect).
(§2) Dans les deux essais, la dose d'agoniste est choisie telle qu'elle n'entraîne pas, chez tous les animaux d'expérience, l'apparition de mouvements stéréotypés de la sphère buccale de type léchage ou mâchonnement (Apomorphine : 0,250 mg.kg^-1 S.C. - d-amphétamine : 3 mg.kg^-1 I.P.).
(§3) L'observation de ce comportement stéréotypé chez un plus grand nombre d'animaux consécutif à l'administration de doses croissantes du composé de l'invention, injectées par voie I.P. 30 minutes avant l'agoniste, traduit un renforcement dopaminergique.
(§4) Les DE50 déterminées par la méthode de Bliss assortie des limites de confiance à 95% sont de 10,8 et 8,9 mg.kg.^-1 I.P. vis-à-vis de l'apomorphine et 1,4 et 2,6 mg.kg^-1 vis-à-vis de la d-amphétamine.

[5] = test system: stéréotypies induites chez le Rat par l'apomorphine (agoniste direct); test: Potentiation of apomorphine-induced stereotypies in the rat; assay type: in vivo; details: for DE50 vis-à-vis de l'apomorphine: Bliss method, two trials not named
Description: as §1, §2, §3, §4

[6] = Acute toxicity, LD50 in mice by different routes; assay type: in vivo; details: souris; for LD50: mouse, in vivo, read-out: DL 50 (the source's name)
Source text: Au plan toxicologique, la détermination des DL 50 des deux produits administrés chez la souris par différentes voies ne révèle aucune différence majeure, le Sulpiride étant toutefois un peu moins toxique par voie buccale.

[7] = Essai I, 2 mg.kg^-1 I.P. 30 min before d-Amphétamine 3 mg.kg^-1 I.P.
[8] = Essai I, 4 mg.kg^-1 I.P. 30 min before d-Amphétamine 3 mg.kg^-1 I.P.
[9] = Essai I, 8 mg.kg^-1 I.P. 30 min before d-Amphétamine 3 mg.kg^-1 I.P.
[10] = Essai I, 4 mg.kg^-1 I.P. 30 min before Apomorphine 0,250 mg.kg^-1 S.C.
[11] = Essai I, 8 mg.kg^-1 I.P. 30 min before Apomorphine 0,250 mg.kg^-1 S.C.
[12] = Essai I, 16 mg.kg^-1 I.P. 30 min before Apomorphine 0,250 mg.kg^-1 S.C.
[13] = Essai II, 1 mg.kg^-1 I.P. 30 min before d-Amphétamine 3 mg.kg^-1 I.P.
[14] = Essai II, 4 mg.kg^-1 I.P. 30 min before d-Amphétamine 3 mg.kg^-1 I.P.
[15] = Essai II, 16 mg.kg^-1 I.P. 30 min before d-Amphétamine 3 mg.kg^-1 I.P.
[16] = Essai II, 4 mg.kg^-1 I.P. 30 min before Apomorphine 0,250 mg.kg^-1 S.C.
[17] = Essai II, 8 mg.kg^-1 I.P. 30 min before Apomorphine 0,250 mg.kg^-1 S.C.
[18] = Essai II, 16 mg.kg^-1 I.P. 30 min before Apomorphine 0,250 mg.kg^-1 S.C.

Compound: CN(C)CCCN1c2ccccc2CCc2ccccc21 [IMIPRAMINE, reference compound]
- tolérance tant clinique que biologique ([1]; 28 days): troubles de la série anticholinergique nettement plus importants et plus sévères

Compound: CCN1CCCC1CNC(=O)c1cc(S(N)(=O)=O)ccc1OC (stereo not shown) [Sulpiride, N-(1-éthyl-2-pyrrolidinyl-méthyl)-2-méthoxy-5-sulfamoyl benzamide, reference compound]
- doses inhibitrices 50 du mouvement de redressement [2]: 22 mg/kg I.P.
- Pouvoir antiémétique chez le chien DE 50 S.C. [3]: 3,5-4,8 γ/kg
- DE50 vis-à-vis de la d-amphétamine [4]: inactif
- % d'activité [4, 7]: 6%
- Nombre d'animaux positifs/16 [4, 7]: 1
- % d'activité [4, 8]: 13%
- Nombre d'animaux positifs/16 [4, 8]: 2
- % d'activité [4, 9]: 6%
- Nombre d'animaux positifs/16 [4, 9]: 1
- DE50 mg.kg^-1 I.P. base ([4]; Essai I, I.P., base, d-Amphétamine 3 mg.kg^-1 I.P., 95% confidence limits in brackets): inactif
- % d'activité [5, 10]: 15%
- Nombre d'animaux positifs/16 [5, 10]: 5
- % d'activité [5, 11]: 31%
- Nombre d'animaux positifs/16 [5, 11]: 7
- % d'activité [5, 12]: 15%
- Nombre d'animaux positifs/16 [5, 12]: 5
- DE50 mg.kg^-1 I.P. base ([5]; Essai I, I.P., base, Apomorphine 0,250 mg.kg^-1 S.C., 95% confidence limits in brackets): inactif
- DE50 vis-à-vis de l'apomorphine ([5]; I.P.): inactif
- LD50 ([6]; ip, I.P.): 210 mg/kg
- LD50 ([6]; iv, I.V.): 43.5 to 44 mg/kg
- LD50 ([6]; po, P.O.): 1800 to 2890 mg/kg
- LD50 ([6]; sc, S.C.): 372 mg/kg

Compound: N-(1-propyl-2-pyrrolidylméthyl)-2-méthoxy-5-sulfamoyl benzamide [Composé selon l'invention]
- doses inhibitrices 50 du mouvement de redressement [2]: 32 mg/kg I.P.
- Pouvoir antiémétique chez le chien DE 50 S.C. [3]: 4,1 γ/kg
- DE50 vis-à-vis de la d-amphétamine ([4]; listed as composé de l'invention): 1,4 mg.kg^-1 and 2,6 mg.kg^-1
- % d'activité [4, 7]: 38%
- Nombre d'animaux positifs/16 [4, 7]: 6
- % d'activité [4, 8]: 69%
- Nombre d'animaux positifs/16 [4, 8]: 11
- % d'activité [4, 9]: 88%
- Nombre d'animaux positifs/16 [4, 9]: 14
- % d'activité [4, 13]: 38%
- Nombre d'animaux positifs/16 [4, 13]: 6
- % d'activité [4, 14]: 81%
- Nombre d'animaux positifs/16 [4, 14]: 13
- % d'activité [4, 15]: 94%
- Nombre d'animaux positifs/16 [4, 15]: 15
- % d'activité [5, 10]: 23%
- Nombre d'animaux positifs/16 [5, 10]: 6
- % d'activité [5, 11]: 46%
- Nombre d'animaux positifs/16 [5, 11]: 9
- % d'activité [5, 12]: 69%
- Nombre d'animaux positifs/16 [5, 12]: 12
- % d'activité [5, 16]: 7%
- Nombre d'animaux positifs/16 [5, 16]: 2
- % d'activité [5, 17]: 33%
- Nombre d'animaux positifs/16 [5, 17]: 6
- % d'activité [5, 18]: 67%
- Nombre d'animaux positifs/16 [5, 18]: 11
- DE50 vis-à-vis de l'apomorphine ([5]; I.P., listed as composé de l'invention): 10,8 mg.kg^-1 and 8,9 mg.kg^-1
- DL 50 ([6]; I.P.): 181 to 203 mg/kg
- DL 50 ([6]; I.V.): 51,7-52,6 mg/kg
- DL 50 ([6]; P.O.): 1411 to 1423 mg/kg
- DL 50 ([6]; S.C.): 337 to 363 mg/kg
- tolérance tant clinique que biologique ([1]; 28 days): moindre fréquence de l'apparition ou de l'aggravation d'une symptomatologie somatique
- efficacité ([1]; compared with IMIPRAMINE 150 mg par jour, compound 450 mg par jour, 28 days): au moins égale à celle de l'IMIPRAMINE
- rapidité d'action sur l'état dépressif ([1]; compared with IMIPRAMINE, J10 versus J28): agit plus rapidement sur l'état dépressif que l'IMIPRAMINE
